Measurements from patent US10758569B2, “Heteroaryl disulfide compounds as allosteric effectors for increasing the oxygen-binding affinity of hemoglobin” (The General Hospital Corporation, priority 2014, dated 2020).

Tests used:
red blood cells = test: ODC of washed red blood cells in Hemox solution; format: cell-based, human; conditions: for P50 of red blood cells: mixed 1 h at 37° C.
Excerpt: For the reduction of P50, less amount of 1 was needed, and the reaction time of 1 with hemoglobin was faster than NEM and 5HMF.

[1] = system: red blood cells from sickle cell disease patients (SRBCs); conditions: reported value; cited from earlier work
whole blood = test: ODC (P50) of whole blood; conditions: 6:1 molar ratio of compound to hemoglobin (120 μM)
Protocol: The ODC of hemoglobin was measured with a HEMOX analyzer (TCS Scientific Corporation) at 37° C. For experiments with purified hemoglobin, hemoglobin (20 μM as tetramer) was dissolved in DPBS and antifoam (0.2 vol %, Catalog No. AFA-25, TCS Scientific Corporation) was added to prevent foaming of the sample. Compounds were prepared in DMSO stock solutions then added to hemoglobin. […] For experiments with RBCs, blood was drawn from volunteers into EDTA tubes. The blood was centrifuged for 15 min at 3,000 rpm at 4° C. The supernatant was discarded, and RBCs were washed three times with DPBS, pH 7.4 by dilution to 50% hematocrit.

hemoglobin = molecular target: T1, hemoglobin (Homo sapiens, UniProt P68871+P69905); test: Hemoglobin oxygen-binding assay (oxyHb %, plate format); format: biochemical; conditions: effector to hemoglobin tetramer 6 to 1 (mol/mol)
T1 construct: from tissue; host or cells: outdated donated human red blood cells (hemolysate supernatant, dialysed against DPBS)
Protocol: Test compounds (0.75 μL, 10 mM in DMSO) were added to the central area of two 384 deep well plates forming compound plates. DPBS was used as the solvent for myo-inositol hexaphosphate (IHP) and N-ethylmaleimide (NEM) (10 mM). To prevent oxidation of hemoglobin during the experiment, glucose-6-phosphate (0.4 mg/mL), glucose-6-phosphate dehydrogenase (1.0 U/mL), nicotinamide adenine dinucleotide phosphate (NADP, 0.05 mg/mL), ferredoxin (0.01 mg/mL), ferredoxin-NADP reductase (0.01 U/mL) and catalase (2×10^3 U/mL) were added to hemoglobin to produce the Hayashi reducing system, which is described in detail in Hayashi et al., Biochemica et Biophysica Acta, 1973, 310, 309-316. […]
The alteration of hemoglobin's oxygen-binding affinity by the test compounds binding to hemoglobin was evaluated in an environment where the fractional oxygen pressure (FO2) could be precisely measured and controlled. […] To confirm the allosteric effect of the test compounds, ODC of hemoglobin was measured in the presence and absence of each compound. […]
The ability of small molecules to alter the oxygen affinity of hemoglobin was determined by measuring the fraction of oxygenated hemoglobin (oxyHb %) and oxidized hemoglobin (metHb %) using spectrophotometry under three (high, medium, and low oxyHb saturation) conditions. […]

T1 sequence (P68871 2-147 limits assumed): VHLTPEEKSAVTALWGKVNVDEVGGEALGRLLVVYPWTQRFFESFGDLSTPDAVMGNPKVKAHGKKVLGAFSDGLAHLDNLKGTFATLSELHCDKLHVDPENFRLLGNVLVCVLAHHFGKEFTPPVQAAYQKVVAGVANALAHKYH
T1 sequence (P69905 2-142 limits assumed): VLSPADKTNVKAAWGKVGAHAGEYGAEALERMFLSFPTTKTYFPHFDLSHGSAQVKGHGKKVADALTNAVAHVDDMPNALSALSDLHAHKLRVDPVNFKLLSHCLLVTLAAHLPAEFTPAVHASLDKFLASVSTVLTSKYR

SMILES: O=Cc1ccc(CO)o1 [Compound 5-HMF, 5-(Hydroxymethyl)furfural]
- P50 of red blood cells (red blood cells; 2 mM): 9 Torr
- P50 of RBCs (red blood cells; Compound 1 at 120 μM (6:1 to Hb tetramer), HEMOX solution, 5 vol % DMSO, 10 min at 37° C.): 27±0.5 Torr
- concentration required to reduce sickling of hypoxic SS RBCs by nearly 90% [1]: 5 mM
- P50 of whole blood (whole blood): 26±0.5 Torr

SMILES: O=P(O)(O)O[C@H]1[C@H](OP(=O)(O)O)[C@@H](OP(=O)(O)O)[C@H](OP(=O)(O)O)[C@@H](OP(=O)(O)O)[C@H]1OP(=O)(O)O [IHP, myo-inositol hexaphosphate]
- change of oxyHb % (hemoglobin): decrease

SMILES: CCN1C(=O)C=CC1=O [NEM, N-ethylmaleimide]
- P50 of red blood cells (red blood cells; 400 μM): 8 Torr
- change of oxyHb % (hemoglobin): increase
- P50 of whole blood (whole blood): 20±1.1 Torr
